Measurements published in article PMC8707145, “Synthesis, Molecular Docking and Antiplasmodial Activities of New Tetrahydro-β-Carbolines” (International Journal of Molecular Sciences, 2021).
Like-named read-outs stand apart in the source and are kept apart here.

Columns and labels:
P. falciparum = settings: read-out: 50% inhibitory concentration (IC50); range of values; no diminished potency against drug-resistant strains; ref [8]; cited from earlier work
[1] = tested on: P. falciparum W2 (CQ-resistant) strain; experiment: P. falciparum drug susceptibility assay (pLDH), W2 strain; format: cell-based, Plasmodium falciparum; settings: for IC50: Plasmodium falciparum, read-out: P. falciparum IC50 W2; for RI (resistance index): RI = IC50 CQ resistant P. falciparum strain/IC50 CQ sensitive P. falciparum strain
Method: Plasmodium falciparum cultures were established according to the method of Trager and Jensen, with slight modifications. The CQ-susceptible strain, D10, and the CQ-resistant strain, W2, were maintained in human type A-positive red blood cells at 5% hematocrit in RPMI 1640 medium with the addition of 1% AlbuMax, 0.01% hypoxanthine, 20 mM Hepes, and 2 mM glutamine. Cultures were maintained at 37 °C in a gas mixture consisting of 1% O2, 5% CO2, and 94% N2. Compounds were dissolved in DMSO and diluted with medium to achieve the required concentrations (final DMSO concentration <1%, which is non-toxic to the parasite). Drugs were introduced into 96-well flat-bottomed microplates and serial dilutions made. Asynchronous cultures with parasitaemia of 1–1.5% and 1% final hematocrit were aliquoted into the plates and incubated for 72 h at 37 °C. Parasite growth was determined spectrophotometrically (OD650) by measuring the activity of parasite lactate dehydrogenase (pLDH), according to a modified version of the method of Makler, in both control and drug-treated cultures.

[2] = tested on: human microvascular endothelial (HMEC-1) cell line; experiment: Cytotoxicity assay on HMEC-1 cell line (MTT); format: cell-based; settings: for SI D10: SI = IC50 HMEC-1/IC50 P. falciparum D10 strain; for SI W2: SI = IC50 HMEC-1/IC50 P. falciparum W2 strain
Method: (§1) The long-term human microvascular endothelial cell line (HMEC-1) was maintained in MCDB 131 medium supplemented with 10% fetal calf serum, 10 ng/mL of epidermal growth factor, 1 µg/mL of hydrocortisone, 2 mM glutamine and 20 mM Hepes buffer. For the cytotoxicity assays, cells were treated with serial dilutions of test compounds and cell proliferation evaluated using the MTT assay. Plates were incubated for 72 h at 37 °C in 5% CO2, then 20 µL of a 5 mg/mL solution of 3-(4,5-dimethylthiazol-2-yl)-2,5-diphenyltetrazolium bromide (MTT) in PBS was added for an additional 3 h at 37 °C. The plates were then centrifuged, the supernatants discarded, and the dark blue formazan crystals dissolved using 100 µL of lysing buffer consisting of 20% (w/v) of a solution of SDS, 40% of N,N dimethylformamide in H2O, at pH 4.7 adjusted with 80% acetic acid. The plates were then read on a microplate reader (Synergy 4 Bio-Tek Instruments, Thermo Fisher Scientific, Waltham, MA, USA) at a test wavelength of 550 nm and a reference wavelength of 650 nm. All the tests were performed in triplicate at least three times.

[3] = Cytotoxicity assay on HMEC-1 cell line (MTT); format: cell-based, human; settings: human, HMEC-1 cells; HMEC-1, MTT, 72 h
Method: as §1

[4] = tested on: P. falciparum D10 (CQ-sensitive) strain; experiment: P. falciparum drug susceptibility assay (pLDH), D10 strain; format: cell-based; settings: Plasmodium falciparum, read-out: P. falciparum IC50 D10
Method: Plasmodium falciparum cultures were established according to the method of Trager and Jensen, with slight modifications. […] Drugs were introduced into 96-well flat-bottomed microplates and serial dilutions made. […] Parasite growth was determined spectrophotometrically (OD650) by measuring the activity of parasite lactate dehydrogenase (pLDH), according to a modified version of the method of Makler, in both control and drug-treated cultures.

[5] = Determination of hemolytic activity; format: cell-based; settings: human erythrocytes, released hemoglobin, read-out: level of hemolysis
Method: We also sought to investigate the hemolytic potential of the synthetized compounds. […] We incubated these compounds at a concentration of 10 µM, with human erythrocytes, and then, by measuring the released hemoglobin, we assessed their potential harmful effects on these cells. The measured level of hemolysis was less than 5% for all agents, which proves that the compounds are not hemolytic. It is worth emphasizing at this point that this type of test is extremely important to confirm that the observed inhibitory activity against Plasmodium is a result of a compound acting directly upon it and not as a result of red blood cell lysis.
The study protocol was approved by the Bioethics Commission at the Lower Silesian Medical Chamber (1/PNHAB/2018, approval date 14 February 2018), and experiments were performed as previously described. Compounds dissolved in DMSO were added in a volume corresponding to a final concentration of 10 µM in the sample. Negative (erythrocytes in PBS buffer), positive (erythrocytes in distilled water), and DMSO controls were also prepared.

[6] = tested on: human microvascular endothelial (HMEC-1) cell line; settings: read-out: IC50 on HMEC-1 cell line, ref [21]; cited from earlier work
P. falciparum Dd2 strain = tested on: P. falciparum Dd2 strain; parameters: method as in PMID 29072835; settings: ref [10], read-out: IC50 growth of P. falciparum Dd2 strain; cited from earlier work
P. falciparum 3D7 strain = tested on: P. falciparum 3D7 strain; parameters: method as in PMID 30411030; settings: ref [11], cited from earlier work
[7] = tested on: P. falciparum RKL-9 strain; parameters: method as in PMID 30411030; settings: ref [11], cited from earlier work
[8] = tested on: normal dermal fibroblasts; parameters: method as in PMID 30411030; settings: ref [11]; cited from earlier work
[9] = W2 (CQ-resistant) strain, 72 h, pLDH
[10] = D10 (CQ-sensitive) strain, 72 h, pLDH

SMILES | IC50 [1, 9] [µM] | RI (resistance index) [1] | SI D10 [2] | SI W2 [2] | IC50 at 72 h [3] [µM] | IC50 [4, 10] [µM] | also measured
C[C@H]1Cc2c([nH]c3cc(Cl)c(F)cc23)[C@@]2(N1)C(=O)Nc1ccc(Cl)cc12 [Cipargamin] | – | – | – | – | – | – | IC50 (P. falciparum): 0.0005 to 0.0014 µM
CC1NC(C(=O)N2CCCCC2)Cc2c1[nH]c1ccccc21 (stereo not shown) [Compound 3, (1-methyl-2,3,4,9-tetrahydro-1H-pyrido[3,4-b]indol-3-yl)(piperidin-1-yl)methanone] | 9.6 ± 0.78 | 0.73 | 11.93 | 16.37 | 157 ± 42.5 | 13.2 ± 2.85 | hemolysis at 10 µM [5]: < 5%
O=C(NCC1CCCO1)C1Cc2c([nH]c3ccccc23)C(c2ccc(Cl)cc2)N1 (stereo not shown) [Compound 10, 1-(4-chlorophenyl)-N-((tetrahydrofuran-2-yl)methyl)-2,3,4,9-tetrahydro-1H-pyrido[3,4-b]indole-3-carboxamide] | 20.5 ± 2.2 | 0.70 | – | – | – | 29.4 ± 7.88 | –
CCC1NC(C(=O)NC23CC4CC(CC(C4)C2)C3)Cc2c1[nH]c1ccccc21 (stereo not shown) [Compound 6, N-(Adamantan-1-yl)-1-ethyl-2,3,4,9-tetrahydro-1H-pyrido[3,4-b]indole-3-carboxamide] | 11.4 ± 0.82 | 1.17 | 2.17 | 1.86 | 21.1 ± 8.82 | 9.73 ± 0.96 | –
CC1NC(C(=O)NC2CCCCC2)Cc2c1[nH]c1ccccc21 (stereo not shown) [Compound 4, N-cyclohexyl-1-methyl-2,3,4,9-tetrahydro-1H-pyrido[3,4-b]indole-3-carboxamide] | 20.1 ± 2.79 | 0.94 | – | – | – | 21.4 ± 4.7 | –
O=C(NCC1CCCCC1)C1Cc2c([nH]c3ccccc23)C(c2ccc(Cl)cc2)N1 (stereo not shown) [Compound 14, 1-(4-chlorophenyl)-N-(cyclohexylmethyl)-2,3,4,9-tetrahydro-1H-pyrido[3,4-b]indole-3-carboxamide] | > 47.4 | – | – | – | – | > 47.4 | –
CC1NC(C(=O)NCC2CCCCC2)Cc2c1[nH]c1ccccc21 (stereo not shown) [Compound 5, N-(cyclohexylmethyl)-1-methyl-2,3,4,9-tetrahydro-1H-pyrido[3,4-b]indole-3-carboxamide] | 16.2 ± 4.11 | 0.48 | – | – | – | 33.5 ± 7.58 | –
CCN(CC)CCCC(C)Nc1ccnc2cc(Cl)ccc12 (stereo not shown) [CQ, chloroquine, reference compound] | – | – | – | – | – | – | IC50 ([1]; W2, 72 h): 0.27 ± 0.07 µM; IC50 [6]: > 38 µM; IC50 ([4]; D10, 72 h): 0.017 ± 0.006 µM
O=C(O)[C@@H]1Cc2c([nH]c3ccccc23)[C@@H](c2ccc(Cl)cc2Cl)N1 [MMV008138] | – | – | – | – | – | – | IC50 (P. falciparum Dd2 strain): 0.25 µM
O=C(NC1CCCCC1)[C@@H]1Cc2c([nH]c3ccccc23)[C@H](c2ccc(Cl)cc2)N1 (racemic) [1RS,3RS-13, (1SR,3SR)-1-(4-chlorophenyl)-N-cyclohexyl-2,3,4,9-tetrahydro-1H-pyrido[3,4-b]indole-3-carboxamide] | 13.5 ± 1.99 | 0.84 | 3.35 | 4.00 | 53.8 ± 21.9 | 16.1 ± 3.36 | –
CCCCCCCCC1NC(C(=O)NCCC(C)(C)C)Cc2c1[nH]c1ccccc21 (stereo not shown) [Compound 7, N-(3,3-dimethylbutyl)-1-octyl-2,3,4,9-tetrahydro-1H-pyrido[3,4-b]-indole-3-carboxamide] | 4 ± 0.53 | 0.90 | 16.18 | 18.00 | 72 ± 22.4 | 4.45 ± 0.83 | hemolysis at 10 µM [5]: < 5%
CC(C)(C)CCNC(=O)C1Cc2c([nH]c3ccccc23)C(c2ccc(Cl)cc2)N1 (stereo not shown) [Compound 8, 1-(4-chlorophenyl)-N-(3,3-dimethylbutyl)-2,3,4,9-tetrahydro-1H-pyrido[3,4-b]indole-3-carboxamide] | 7.8 ± 1.54 | 0.74 | 1.71 | 2.30 | 17.9 ± 9.46 | 10.5 ± 1.53 | –
COC(=O)[C@@H]1Cc2c([nH]c3ccccc23)[C@@H](c2ccc3c(c2)OCO3)N1 [Compound 9a] | – | – | – | – | – | – | IC50 (P. falciparum 3D7 strain; 3D7 strain): < 2.86 µM; selectivity index 3D7 (P. falciparum 3D7 strain; against 3D7 strain): > 10; IC50 ([7]; RKL-9 strain): < 2.86 µM; selectivity index RKL-9 ([7]; against RKL-9 strain): > 10; toxicity to normal dermal fibroblasts [8]: nontoxic
O=C(NC1CCCCCCC1)C1Cc2c([nH]c3ccccc23)CN1 (stereo not shown) [Compound 2, N-cyclooctyl-2,3,4,9-tetrahydro-1H-pyrido[3,4-b]indole-3-carboxamide] | 10.1 ± 2.14 | 0.46 | – | – | – | 21.9 ± 5.82 | –
O=C(NCCCN1CCOCC1)C1Cc2c([nH]c3ccccc23)C(c2ccc(Cl)cc2)N1 (stereo not shown) [Compound 12, 1-(4-chlorophenyl)-N-(3-morpholinopropyl)-2,3,4,9-tetrahydro-1H-pyrido[3,4-b]indole-3-carboxamide] | 6.15 ± 0.46 | 0.54 | 8.91 | 16.60 | 102 ± 14.8 | 11.5 ± 0.34 | hemolysis at 10 µM [5]: < 5%
O=C(NC1CCCCC1)[C@@H]1Cc2c([nH]c3ccccc23)[C@@H](c2ccc(Cl)cc2)N1 (racemic) [1RS,3SR-13, (1RS,3SR)-1-(4-chlorophenyl)-N-cyclohexyl-2,3,4,9-tetrahydro-1H-pyrido[3,4-b]indole-3-carboxamide] | 9.13 ± 0.83 | 0.73 | – | – | > 123 | 12.5 ± 0.71 | –
CC(C)(C)CC(C)(C)NC(=O)C1Cc2c([nH]c3ccccc23)C(c2ccc(Cl)cc2)N1 (stereo not shown) [Compound 9, 1-(4-chlorophenyl)-N-(2,4,4-trimethylpentan-2-yl)-2,3,4,9-tetrahydro-1H-pyrido[3,4-b]indole-3-carboxamide] | 6.41 ± 1.05 | 0.76 | 2.25 | 2.95 | 18.9 ± 10.2 | 8.41 ± 1.2 | –
O=C(NCC1COCCO1)C1Cc2c([nH]c3ccccc23)C(c2ccc(Cl)cc2)N1 (stereo not shown) [Compound 11, N-((1,4-dioxan-2-yl)methyl)-1-(4-chlorophenyl)-2,3,4,9-tetrahydro-1H-pyrido[3,4-b]indole-3-carboxamide] | 29.1 ± 4.05 | 0.82 | – | – | – | 35.4 ± 4.86 | –
